Laboratory results as given in article PMC11249953, “c-KIT inhibitors reduce pathology and improve behavior in the Tg(SwDI) model of Alzheimer’s disease” (Life Science Alliance, 2024).
Several values for one entry are separate records, joined by “and”; a condition that tells them apart may be missing. Equal entries are not always repeated.

Experiments:
KIT = molecular target: T1, KIT (Homo sapiens, UniProt P10721); assay: KINOMEscan competition binding, KIT; conditions: 10 µM compound
T1 construct: DNA label for qPCR read-out (T7 phage fusion or DNA tag); purchased Eurofins DiscoverX Corporation; host or cells: T7 phage in E. coli (BL21-derived) or HEK-293
Protocol: (§1) The KINOMEscan screening platform (Eurofins DiscoverX Corporation) was performed using active site-directed competition binding assay to quantitatively measure interactions between BK40143 and BK40197 and more than 450 human kinases and disease relevant mutant variants. […] Screening “hits” are identified by measuring the amount of kinase captured in test (BK40143 and BK40197) versus control samples by using a quantitative and ultra-sensitive qRT-PCR method that detects the associated DNA label. BK40143 and BK40197 were screened at 10 µM concentration, and results for primary screen binding interactions were reported as “% Ctrl” (POC), where lower numbers indicate stronger hits and calculated as follows: [test compound signal−positive control signal/negative control signal−positive control signal]×100
(§2) negative control = DMSO (100% Ctrl)
(§3) positive control = control compound (0% Ctrl)
(§4) Based on screening data from of profiled compounds, a proportional relationship between primary screening results and corresponding compound/target affinities can be described as binding constants (Kd values) for the indicated ranges of POC values with tighter binding (higher affinity) interactions associated with lower POC values and weaker binding (lower affinity) associated with higher POC values. Briefly, kinase-tagged T7 phage strains were grown in parallel in 24-well blocks in an E. coli host derived from the BL21 strain. E. coli were grown to log-phase and infected with T7 phage from a frozen stock (multiplicity of infection = 0.4) and incubated with shaking at 32°C until lysis (90–150 min). The lysates were centrifuged (6,000g) and filtered (0.2 μm) to remove cell debris. The remaining kinases were produced in HEK-293 cells and subsequently tagged with DNA for qRT-PCR detection. Streptavidin-coated magnetic beads were treated with biotinylated small molecule ligands for 30 min at RT to generate affinity resins for kinase assays. The liganded beads were blocked with excess biotin and washed with blocking buffer (1% BSA, 0.05% Tween 20, 1 mM DTT; SeaBlock [Pierce]) to remove unbound ligand and to reduce non-specific phage binding. Binding reactions were assembled by combining kinases, liganded affinity beads, and test compounds in 1x binding buffer (20% 0.17x PBS, 0.05% Tween 20, 6 mM DTT; SeaBlock). Test compounds were prepared as 100x stocks in 100% DMSO and directly diluted into the assay. All reactions were performed in polypropylene 384-well plates in a final volume of 0.02 ml. The assay plates were incubated at RT with shaking for 1 h and the affinity beads were washed with wash buffer (1x PBS, 0.05% Tween 20). […] The kinase concentration in the eluates was measured by qRT-PCR.

p-ABL1 = molecular target: T2, p-ABL1 (Homo sapiens, UniProt P00519); assay: KINOMEscan competition binding, p-ABL1; conditions: 10 µM compound
T2 construct: DNA label for qPCR read-out (T7 phage fusion or DNA tag); purchased Eurofins DiscoverX Corporation; host or cells: T7 phage in E. coli (BL21-derived) or HEK-293
Protocol: as §1, §2, §3, §4

A53T mice = assay: Novel object recognition, A53T mice; format: in vivo, mouse; conditions: 5 mg/kg
Protocol: Novel object recognition was carried out using a 50 × 50 cm arena with clear walls covered by brown construction paper. Mice were habituated to the room for 30 min each day, before being allowed to freely explore the arena for 5 min two times, for 3 d. On the 4th d, two identical objects were placed in the arena in opposite adjacent corners, 10 cm from the corner of the arena. Mice were placed along the wall opposite from the objects and allowed to freely explore for 10 min. Approach behavior (extending nose toward the object) toward both objects was recorded manually using handheld stop watches and compared with ensure there was no preference for either neutral object. For the probe trial, one object was removed and replaced with a novel object, and mice were again allowed to freely explore for 10 min, with approach time towards the novel and familiar objects recorded. Trials in which the mice explored for less than 1 s were excluded. Discrimination index was calculated by dividing time spent exploring the novel object by total time exploring both objects and was compared for treated versus control animals.

mice = assay: Elevated plus maze, source data sheets EPM (mouse line not given); format: in vivo; conditions: for EPM Trial 1 Closed Entries / EPM Trial 1 Open Entries / EPM Trial 2 Closed Entries / EPM Trial 2 Open Entries / EPM Trial 2 Time Closed / EPM Trial 1 Time Closed / EPM Trial 1 Time Open / EPM Trial 2 Time Open / EPM Totals Closed Entries / EPM Totals Open Entries / EPM Totals Time Closed / EPM Totals Time Open: individual mice; for EPM Trial 2 Time Closed / EPM Totals Time Closed / EPM Totals Time Open / Time Open: in s (unit assumed); for EPM Trial 1 Time Closed / EPM Trial 1 Time Open / EPM Trial 2 Time Open / Time Closed / Time Closed AVG / Time Open AVG: in s; for EPM Totals Closed Entries / EPM Totals Open Entries / EPM Totals Time Closed / EPM Totals Time Open: sum of trials 1 and 2; for Closed Entries AVG / Open Entries AVG / Time Closed AVG / Time Open AVG: group average
Protocol: The elevated plus maze was performed using a standard set up, with two enclosed arms and two open arms. Mice were placed at the intersection of the open and closed arms and allowed to freely explore for 5 min, two times. Time spent in the open and closed arms and number of entries into the open and closed arms were recorded.

[1] = ref Fowler et al, 2020; cited from earlier work
[2] = 2.5mg/kg, listed as 143, female mice
[3] = 2.5mg/kg, listed as 143, male mice
[4] = 5.0mg/kg, listed as 143, female mice
[5] = 5.0mg/kg, listed as 143, male mice
[6] = Totals (Trial 1 + Trial 2), individual animals, listed as 143
[7] = Trial 1, individual animals, listed as 143
[8] = Trial 2, individual animals, listed as 143

T2 sequence (P00519 whole entry, the tested form may be a part): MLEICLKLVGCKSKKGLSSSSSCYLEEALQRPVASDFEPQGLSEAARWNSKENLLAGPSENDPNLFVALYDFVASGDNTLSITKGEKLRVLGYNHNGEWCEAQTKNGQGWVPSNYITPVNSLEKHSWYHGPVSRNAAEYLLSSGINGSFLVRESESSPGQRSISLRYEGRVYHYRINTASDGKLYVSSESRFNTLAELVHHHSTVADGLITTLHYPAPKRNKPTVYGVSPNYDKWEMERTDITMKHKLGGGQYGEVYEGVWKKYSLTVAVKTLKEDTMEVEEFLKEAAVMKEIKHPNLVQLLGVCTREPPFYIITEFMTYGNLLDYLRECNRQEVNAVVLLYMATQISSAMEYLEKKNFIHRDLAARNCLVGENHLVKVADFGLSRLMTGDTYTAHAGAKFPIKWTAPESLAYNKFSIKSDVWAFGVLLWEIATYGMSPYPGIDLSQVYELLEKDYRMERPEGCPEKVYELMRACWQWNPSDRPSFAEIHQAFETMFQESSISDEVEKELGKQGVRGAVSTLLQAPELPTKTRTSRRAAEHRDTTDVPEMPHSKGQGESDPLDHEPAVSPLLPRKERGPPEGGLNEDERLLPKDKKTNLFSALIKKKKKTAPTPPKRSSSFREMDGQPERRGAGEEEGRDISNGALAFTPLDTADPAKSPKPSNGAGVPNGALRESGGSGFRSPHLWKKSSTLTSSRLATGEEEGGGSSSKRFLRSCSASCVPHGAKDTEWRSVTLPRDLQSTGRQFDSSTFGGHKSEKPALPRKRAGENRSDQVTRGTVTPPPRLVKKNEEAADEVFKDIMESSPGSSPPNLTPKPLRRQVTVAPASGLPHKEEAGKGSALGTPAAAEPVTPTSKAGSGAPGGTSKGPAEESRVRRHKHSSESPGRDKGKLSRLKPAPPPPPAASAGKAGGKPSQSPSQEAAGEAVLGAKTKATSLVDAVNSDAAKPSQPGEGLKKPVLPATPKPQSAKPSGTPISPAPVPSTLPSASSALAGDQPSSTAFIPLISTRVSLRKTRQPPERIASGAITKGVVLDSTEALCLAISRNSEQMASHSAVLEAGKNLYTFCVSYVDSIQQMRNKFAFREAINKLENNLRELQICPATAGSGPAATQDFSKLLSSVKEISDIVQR
T1 sequence (P10721 26-976): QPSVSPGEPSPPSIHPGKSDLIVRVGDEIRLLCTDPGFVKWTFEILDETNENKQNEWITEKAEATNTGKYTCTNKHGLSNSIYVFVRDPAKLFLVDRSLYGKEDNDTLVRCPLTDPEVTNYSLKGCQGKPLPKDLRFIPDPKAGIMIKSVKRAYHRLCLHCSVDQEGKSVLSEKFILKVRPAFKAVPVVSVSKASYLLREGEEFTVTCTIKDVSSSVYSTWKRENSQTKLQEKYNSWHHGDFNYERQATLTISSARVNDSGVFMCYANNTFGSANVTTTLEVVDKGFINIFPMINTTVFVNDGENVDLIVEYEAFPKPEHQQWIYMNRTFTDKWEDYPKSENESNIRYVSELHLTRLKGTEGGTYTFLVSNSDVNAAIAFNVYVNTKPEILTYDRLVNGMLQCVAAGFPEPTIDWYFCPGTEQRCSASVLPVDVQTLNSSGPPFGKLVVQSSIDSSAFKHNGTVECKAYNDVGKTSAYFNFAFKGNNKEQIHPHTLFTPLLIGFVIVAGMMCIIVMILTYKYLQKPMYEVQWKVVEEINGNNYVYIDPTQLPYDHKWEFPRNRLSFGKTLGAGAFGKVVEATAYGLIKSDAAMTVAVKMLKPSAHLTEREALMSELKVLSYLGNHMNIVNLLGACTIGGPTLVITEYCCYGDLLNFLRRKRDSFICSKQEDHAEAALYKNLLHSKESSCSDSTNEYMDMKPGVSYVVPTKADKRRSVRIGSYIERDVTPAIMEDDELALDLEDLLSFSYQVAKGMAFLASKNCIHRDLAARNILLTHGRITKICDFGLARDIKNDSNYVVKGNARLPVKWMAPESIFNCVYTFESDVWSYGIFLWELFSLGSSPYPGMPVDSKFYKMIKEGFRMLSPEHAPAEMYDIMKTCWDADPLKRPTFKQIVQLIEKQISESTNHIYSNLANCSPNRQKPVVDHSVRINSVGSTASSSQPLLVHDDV

## Cc1cccc(-c2cc3nccc(Nc4ccccc4)c3s2)c1 [BK40143]
KIT
  inhibition at 10 µM: 100%
KIT; lower = stronger binding, read-out: KIT %Ctrl @ 10000nM (POC)
  remaining binding at 10 µM: 0%
p-ABL1
  inhibition at 10 µM: 97.5%
p-ABL1; lower = stronger binding, read-out: p-ABL1 %Ctrl @ 10000nM (POC)
  remaining binding at 10 µM: 2.5%
A53T mice
  novel object recognition: significant improvements on novel object recognition
mice; [2]
  EPM Trial 1 Closed Entries: 7 and 2 and 1 and 3 and 5
  EPM Trial 1 Open Entries: 6 and 2 and 1 and 5 and 3
  EPM Trial 2 Closed Entries: 2 and 8 and 1 and 5
  EPM Trial 2 Open Entries: 1 and 6 and 0 and 4
  EPM Trial 2 Time Closed: 296 and 240 and 300 and 257 and 277
  EPM Trial 1 Time Closed: 280 and 287 and 293 and 268 and 258 and 222
  EPM Trial 1 Time Open: 20 and 13 and 7 and 32 and 42 and 78
  EPM Trial 2 Time Open: 4 and 60 and 0 and 43 and 23
  EPM Totals Closed Entries: 9 and 10 and 2 and 3 and 8 and 11
  EPM Totals Open Entries: 7 and 8 and 1 and 5 and 10
  EPM Totals Time Closed: 576 and 527 and 593 and 568 and 515 and 499
  EPM Totals Time Open: 24 and 73 and 7 and 32 and 85 and 101
mice; [3]
  EPM Trial 2 Time Closed: 251
  EPM Trial 1 Time Closed: 255
  EPM Trial 1 Time Open: 45
  EPM Trial 2 Time Open: 49
  EPM Trial 1 Closed Entries: 10
  EPM Trial 1 Open Entries: 10
  EPM Trial 2 Closed Entries: 6
  EPM Trial 2 Open Entries: 8
  EPM Totals Time Closed: 506
  EPM Totals Time Open: 94
  EPM Totals Closed Entries: 16
  EPM Totals Open Entries: 18
mice; [4]
  EPM Trial 1 Closed Entries: 2 and 3 and 5 and 4
  EPM Trial 1 Open Entries: 1 and 5 and 4
  EPM Trial 2 Closed Entries: 1 and 6 and 13
  EPM Trial 2 Open Entries: 0 and 6 and 1 and 7
  EPM Trial 2 Time Closed: 300 and 219 and 298 and 244
  EPM Trial 1 Time Closed: 297 and 266 and 284 and 290 and 268 and 259
  EPM Trial 1 Time Open: 3 and 34 and 16 and 10 and 32 and 41
  EPM Trial 2 Time Open: 0 and 81 and 2 and 56
  EPM Totals Closed Entries: 3 and 9 and 6 and 17
  EPM Totals Open Entries: 1 and 11 and 4 and 5
  EPM Totals Time Closed: 597 and 485 and 584 and 590 and 566 and 503
  EPM Totals Time Open: 3 and 115 and 16 and 10 and 34 and 97
mice; [5]
  EPM Trial 2 Time Closed: 237 and 280 and 238
  EPM Trial 1 Time Closed: 300 and 261 and 228 and 166
  EPM Trial 1 Time Open: 0 and 39 and 72 and 134
  EPM Trial 2 Time Open: 63 and 20 and 62
  EPM Trial 1 Closed Entries: 1 and 6 and 9
  EPM Trial 1 Open Entries: 0 and 6 and 9
  EPM Trial 2 Closed Entries: 7 and 8
  EPM Trial 2 Open Entries: 3 and 8
  EPM Totals Time Closed: 600 and 498 and 508 and 404
  EPM Totals Time Open: 0 and 102 and 92 and 196
  EPM Totals Closed Entries: 2 and 11 and 13
  EPM Totals Open Entries: 0 and 9 and 17
mice; [6]
  Closed Entries: 15 and 5 and 8 and 6 and 9 and 14 and 11
  Open Entries: 10 and 7 and 8 and 6 and 12 and 17
  Time Closed: 435 and 498 and 481 and 538 and 465 and 421 and 544 and 262 and 497 and 529
  Time Open: 165 and 102 and 119 and 62 and 135 and 179 and 56 and 338 and 103 and 71
mice; Totals
  Closed Entries AVG: 11.2
  Open Entries AVG: 9.1
  Time Closed AVG: 467
  Time Open AVG: 133
mice; Trial 1
  Closed Entries AVG: 6.6
  Open Entries AVG: 5.8
  Time Closed AVG: 206.8
  Time Open AVG: 93.2
mice; [7]
  Closed Entries: 9 and 2 and 6 and 3 and 5 and 8 and 10 and 7
  Open Entries: 7 and 3 and 6 and 5 and 4 and 9
  Time Closed: 160 and 258 and 206 and 186 and 167 and 254 and 112 and 227 and 240
  Time Open: 140 and 42 and 94 and 114 and 133 and 46 and 188 and 73 and 60
mice; Trial 2
  Closed Entries AVG: 4.6
  Open Entries AVG: 3.3
  Time Closed AVG: 260.2
  Time Open AVG: 39.8
mice; [8]
  Closed Entries: 6 and 3 and 2 and 4 and 7
  Open Entries: 3 and 4 and 2 and 5 and 1 and 8
  Time Closed: 275 and 240 and 280 and 279 and 254 and 290 and 150 and 270 and 289
  Time Open: 25 and 60 and 20 and 21 and 46 and 10 and 150 and 30 and 11
mice; total Time Open per total Open Entries, individual animals, listed as 143
  Time/Entry: 16.5 and 14.5714 and 14.875 and 8.857 and 22.5 and 14.9167 and 9.333 and 19.8824 and 10.3 and 8.875
[1]
  brain penetrance: brain penetrant
